Test: Pharmacokinetic evaluation of Bupivacaine (BU) and Formula I (1-1) in Sprague-Dawley rats (blood and brain concentrations)
Format: in vivo
Conditions: rat, male Sprague-Dawley rats, intravenous, 3 mg/kg, n=5
Description: Male specific pathogen-free Sprague-Dawley rats weighing 300-350 g were obtained from the Laboratory. The animals had free access to food and water. The rat was anaesthetized with urethane 1.0 g/mL and chloralose 0.1 g/mL (1 mL/kg, i.p.) before surgery. The femoral vein was cannulated for further drug administration, and the rat's body temperature was maintained by heating pad during the experiment. All rats remained anaesthetized during the experimental period over which the Formula I (1-1) and BU concentrations in blood, brain and bile were monitored, and they were euthanized by overdose CO2 under the anaesthetic after the experimental endpoint.
Bupivacaine (3 mg/mL) was prepared in 0.9%(w/v) sodium chloride. Formula I (1-1) equivalent of BU 3 mg/mL. Rats were divided into the following groups (n=5 for each group) and received drugs intravenously: group 1 treated with (20 mg/kg) 10 min before BU (3 mg/kg) administration, group 2 treated with Formula I (1-1) (3 mg/kg).
The chromatographic system consisted of a PM-80 chromatographic pump (BAS, West Lafayette, Ind., USA), an off-line injector (CMA/140, Stockholm, Sweden) equipped with a […] sample loop injector (Rheodynemodel7125) and a UV-Vis detector (Soma, Tokyo, Japan) that operated at room temperature (25±2° C.). Separation was achieved on a LiChrosphere60RP-select B column (4.6 mm×250 mm, […], Merck). The mobile phase for plasma, brain homogenate, blood dialysate and brain dialysate was comprised of 10 mM potassium dihydrogenphosphate-acetonitrile-triethylamine (67:33:0.01), adjusted to pH4.3 with H3PO4. The mobile phase for bile dialysate consisted of 10 mM potassium dihydrogen phosphate-acetonitrile-triethylamine (60:40:0.01), adjusted to pH6.0 with H3PO4. The flow rate was set at 1.0 mL/min for both mobile phases.

CCCCN1CCCCC1C(=O)Nc1c(C)cccc1C (stereo not shown) [BU, Bupivacaine]
AUC (Blood): 1.37 µg·h/mL | half-life (Blood): 4 ± 2 min | AUC (Brain): 0.25 µg·h/mL | Cmax (Brain): 0.56 ± 0.13 µg/mL
